Test system: human antibody to the nicotinic acetylcholine receptor
Assay: Adsorption of human anti-nicotinic acetylcholine receptor antibody from myasthenia gravis patient serum; residual antibody in supernatant by Con A method (toxin binding inhibition)
Method: In 0.5 ml of serum from a patient of myasthenia gravis, 50 mg of the adsorbent obtained in Referential Example 3(a) (cellulose particles having the peptide immobilized thereon) and not yet subjected to any heat treatment or the adsorbent obtained in Referential Example 3(b) and subjected to a heat treatment was suspended at a temperature of 37° C. for three hours. The resultant suspension was centrifuged to separate a supernatant. The supernatant was tested for the concentration of the human antibody to the nicotinic acetylcholine receptor by the Con A method [Protein, Nucleic Acid and Enzyme, vol. […] To be specific, the specimen was brought into contact sequentially with the nicotinic acetylcholine receptor and a radioisotope-labelled α-bungartoxin. The treated specimen was passed through a column packed with Sepharose having immobilized thereon concanavalin (Con A). By measuring the radioactivity of the column, the amount of the human antibody which was contained in the specimen and which inhibited the union of the α-bungarotoxin with the nicotinic acetylcholine receptor was determined in terms of toxin binding inhibition activity (ratio of decrease of the radioactivity of the column).

`NCC(=O)O` [Glycine, glycine] was tested. Which “Toxine binding inhibition activity” value (as E1, adsorbent heat treated at 121° C. for 20 minutes) did it give?
Its value is 45%.

And the “Toxine binding inhibition activity” value (supernatant of 0.5 ml myasthenia gravis serum after 50 mg adsorbent (substance immobilized on cellulose particles), 37° C., three hours, no heat treatment, lower = more antibody adsorbed)?
The value was 44%.
